{"source": "patent US20070275366A1", "about": "“Regulation of Sperm Function” (priority 2003, published 2007)", "molecules": {"B1": {"name": "vitronectin: extracellular matrix protein (250 μg/ml, Sigma) (protein, UniProt P04004 20-478, looked up)", "Vitronectin": "DQESCKGRCTEGFNVDKKCQCDELCSYYQSCCTDYTAECKPQVTRGDVFTMPEDEYTVYDDGEEKNNATVHEQVGGPSLTSDLQAQSKGNPEQTPVLKPEEEAPAPEVGASKPEGIDSRPETLHPGRPQPPAEEELCSGKPFDAFTDLKNGSLFAFRGQYCYELDEKAVRPGYPKLIRDVWGIEGPIDAAFTRINCQGKTYLFKGSQYWRFEDGVLDPDYPRNISDGFDGIPDNVDAALALPAHSYSGRERVYFFKGKQYWEYQFQHQPSQEECEGSSLSAVFEHFAMMQRDSWEDIFELLFWGRTSAGTRQPQFISRDWHGVPGQVDAAMAGRIYISGMAPRPSLAKKQRFRHRNRKGYRSQRGHSRGRNQNSRRPSRATWLSLFSSEESNLGANNYDDYRMDWLVPATCEPIQSVFFFSGDKYYRVNLRTRRVDTVDPPYPRSIAQYWLGCPAPGHL"}}, "key": {"[1]": {"system": "frozen-thawed spermatozoa (Bull semen samples)", "assay": "Sperm motility by microscopy on heated stage (percentage of motile spermatozoa with linear progressive movement)", "type": "cell-based", "conditions": "for increase in sperm motility compared to fibronectin alone / increase in sperm motility compared to the RGD plus fibronectin sample: Angiotensin II 10^−9 moles/L added to fibronectin plus RGDS sample", "method": "Each sperm sample was packed and frozen in 0.25 ml plastic straws. The frozen spermatozoa straw (0.25 ml) was rapidly thawed by plunging it into a 37° C. water bath. When the sample was thawed, the straw was dried with a tissue, kept horizontal and cut both ends into a pre-warmed TALP medium.\nSpermatozoa were washed twice by TALP medium and centrifugation at 600×g for 10 minutes, then re-suspended with TALP pre-warmed to 37° C. The motility of the frozen-thawed spermatozoa was assessed at 37° C. using thermal plates. Sperm motility and morphology was estimated by microscopical observation on a warm 37° C. stage. Semen (10 μl) was covered by a cover glass (18 mm×18 mm) and at least 5 microscopic fields were examined. Motility was expressed as the percentage of motile spermatozoa with linear progressive movement in the sample (see Vinson, G. P., Puddefoot, J. R., Ho, M. M., Barker, S., Mehta, J., Saridogan, E. and Djahanbakhch, O. (1995). “Type 1 angiotensin II (AT1) receptors in sperm”, Journal Of Endocrinology, 144, 369-378). The prepared sperm sample were incubated with additives at 37° C. in a water bath as described in each example, and assayed for motility as before.\nAll incubations were carried out at 37° C., using water bath and heated stage. Semen samples (10 μl) were applied to preheated (37° C.) slides and placed on the microscope heated stage and examined. The number of motile sperm were counted in the control sample at zero time, and in the treated samples after the incubation times indicated."}, "[2]": {"system": "sperm from volunteers and patients attending fertility clinics", "conditions": "background statement, cited from earlier work"}, "bull spermatozoa": {"system": "bull spermatozoa", "assay": "Chlortetracycline (CTC) fluorescence assay of capacitation state", "type": "cell-based", "conditions": "Example 6", "description": "An alternative method of assessing capacitation is by using the CTC assay (DasGupta S, Mills C L, Fraser L R. Ca(2+)-related changes in the capacitation state of human spermatozoa assessed by a chlortetracycline fluorescence assay. J Reprod Fertil. 1993 September; 99(1):135-43.; Fraser L R, Herod J E. Expression of capacitation-dependent changes in chlortetracycline fluorescence patterns in mouse spermatozoa requires a suitable glycolysable substrate. J Reprod Fertil. 1990 March; 88(2):611-21). In this method, used in Example 6 below, patterns of staining distinguish non-capacitated, capacitated and acrosome reacted sperm. Chlortetracycline (CTC) solution: CTC (750 μM CTC in Tris (20 mM)-NaCl (130 mM), DL-cysteine (5 mM), buffer (20 mM Tris/130 mM NaCl, pH 7.8). Spermatozoa samples were obtained from healthy bulls (Semex, UK). All semen samples used in this study had been frozen and thawed. Each sample was packed in 0.25 ml plastic straws. The frozen spermatozoa straw (0.25 ml) was rapidly thawed by plunging it into a 37° C. water bath. When the sample was thawed, the straw was dried with a tissue, kept horizontal and cut both ends into a pre-warmed TALP medium. Spermatozoa were washed twice by TALP medium and centrifugation at 600 g for 10 minutes, then re-suspended with TALP pre-warmed to 37° C. Spermatozoa were incubated without additives, or with either angiotensin II (10^−9 moles per litre), fibronectin (5-50 μg/ml), or with both. Treated samples (45 μl) were aliquoted into foil wrapped eppendorf tubes with CTC solution (45 μl) and fixed with 12.5% paraformaldehyde, prior to viewing by […]. Three patterns of chlortetracycline fluorescent staining may be observed on bull spermatozoa: F (uncapacitated)-pattern, bright fluorescence was detected over the whole region of the sperm head; B (capacitated)-pattern, fluorescence was detected on the sperm head but not on the postacrosomal region; AR (acrosome-reacted)-pattern, weak fluorescence was observed over the sperm head, and a bright band was sometimes observed in the equatorial region."}, "sperm": {"system": "sperm", "assay": "Sperm viability, carboxyfluorescein diacetate / propidium iodide live-dead stain", "type": "cell-based", "conditions": "Example 7; fibronectin 5 μg/ml, stored at room temperature, after 3 days; untreated control 75% to 18%", "method": "Stock solutions: carboxyfluorescein diacetate (0.46 mg/ml in dimethyl sulphoxide), propidium iodide (0.5 mg/ml isotonic saline), formaldehyde (10 μl formalin to 150 μl distilled water). Fluorescence stain: 50 μl carboxyfluorescein and 50 μl of propidium iodide to 2 ml sperm extender, plus 100 μl formaldehyde.\nSemen were diluted with stain (1:1) dilution and incubated at room temperature […] for 15 min. Samples washed with extender, and examined for live and dead sperm."}, "[3]": {"conditions": "Example 3, fibronectin 2 μg/l added to sperm pre-incubated with RGDS, incubation of 5-10 minutes"}}}
{"molecule": "laminin: extracellular matrix protein (250 μg/ml, Sigma)", "values": [{"measurement": "change in total sperm motility", "setting": "[1]; Example 5, laminin 2 μg/l, 10 min, 37° C.", "value": "significant decrease"}]}
{"molecule": "Angiotensin II (DRVYIHPF; Angiotensin-2; UniProt P01019 25-32, looked up) [peptide used as capacitating agent]", "values": [{"measurement": "effect on percentage of motile sperm and linear velocity", "setting": "[2]", "value": "may increase both the percentage of motile sperm and their linear velocity"}, {"measurement": "increase in sperm motility compared to fibronectin alone", "setting": "[1]; Example 1", "value": 71, "unit": "%"}, {"measurement": "increase in sperm motility compared to the RGD plus fibronectin sample", "setting": "[1]; Example 1", "value": 62, "unit": "%"}, {"measurement": "increase in sperm motility compared to fibronectin alone", "setting": "[1]; Example 1, 10 minutes", "value": 43, "unit": "%"}, {"measurement": "increase in sperm motility compared to the RGD plus fibronectin sample", "setting": "[1]; Example 1, 10 minutes", "value": 34, "unit": "%"}, {"measurement": "increase in sperm motility compared to fibronectin alone", "setting": "[1]; Example 1, 20 minutes", "value": 64, "unit": "%"}, {"measurement": "increase in sperm motility compared to the RGD plus fibronectin sample", "setting": "[1]; Example 1, 20 minutes", "value": 55, "unit": "%"}, {"measurement": "sperm motility", "setting": "[1]; Example 2, Angiotensin II 10^−9 moles/L added to fibronectin (2 μg/l) sample, 10 minutes", "value": 64, "unit": "%"}, {"measurement": "sperm motility", "setting": "[1]; Example 2, Angiotensin II 10^−9 moles/L added to fibronectin (2 μg/l) sample, 20 minutes", "value": 62, "unit": "%"}, {"measurement": "sperm motility", "setting": "[1]; Example 2, Angiotensin II 10^−9 moles/L added to fibronectin (2 μg/l) sample, 3040 minutes", "value": 62, "unit": "%"}, {"measurement": "sperm motility", "setting": "[1]; Example 3, Angiotensin II 10^−9 moles/L added to fibronectin+RGDS sample, 10 minutes", "value": 43, "unit": "%"}, {"measurement": "sperm motility", "setting": "[1]; Example 3, Angiotensin II 10^−9 moles/L added to fibronectin+RGDS sample, 20 minutes", "value": 54, "unit": "%"}, {"measurement": "sperm motility", "setting": "[1]; Example 3, Angiotensin II 10^−9 moles/L added to fibronectin+RGDS sample, 3040 minutes", "value": 54, "unit": "%"}, {"measurement": "change in sperm motility", "setting": "[1]; Example 4, Angiotensin II 10^−9 moles/L added to vitronectin sample, 5 to 35 minutes", "value": "significant increase"}, {"measurement": "change in sperm motility", "setting": "[1]; Example 5, Angiotensin II 10^−9 moles/L added to laminin sample, 10 to 40 minutes", "value": "significant increase"}, {"measurement": "capacitated sperm (B pattern)", "setting": "bull spermatozoa; angiotensin II only (10^−9 moles per litre), 60 min incubation", "value": 45, "unit": "%"}, {"measurement": "uncapacitated sperm (F pattern)", "setting": "bull spermatozoa; angiotensin II only (10^−9 moles per litre), 60 min incubation, control about 60%, 55% by 30 min", "value": "~18", "unit": "%"}]}
{"molecule": "fibronectin", "values": [{"measurement": "sperm remaining viable (living sperm)", "setting": "sperm", "value": 48, "unit": "%"}, {"measurement": "sperm motility", "setting": "[1]; Example 1, fibronectin 2 μg/l, incubation of 5-10 minutes, 37° C., control 70% at time zero", "value": 14, "unit": "%"}, {"measurement": "sperm motility", "setting": "[1]; Example 2, fibronectin 2 μg/l, incubation of 5-10 minutes, control 79% at time zero", "value": 8, "unit": "%"}, {"measurement": "decrease of motility compared to the RGD treated sample", "setting": "[1]; [3]", "value": 28, "unit": "%"}, {"measurement": "decrease of motility compared to the control", "setting": "[1]; [3]", "value": 47, "unit": "%"}, {"measurement": "patterns of sperm staining (CTC)", "setting": "bull spermatozoa; fibronectin 5 μg/ml", "value": "very similar to the untreated controls"}]}
{"molecule": "CCCCc1nc(Cl)c(CO)n1Cc1ccc(-c2ccccc2-c2nn[nH]n2)cc1", "note": "[losartan]", "values": [{"measurement": "effect on the action of angiotensin II on the percentage of motile sperm", "setting": "[2]; specific AT1 receptor antagonist", "value": "inhibits the action of angiotensin II on the percentage of motile sperm"}]}
{"molecule": "Arg-Gly-Asp-Ser (RGDS; printed: Arg-Gly-Asp-Ser) [commercially available tetrapeptide used as a source of RGD]", "values": [{"measurement": "decrease in sperm motility", "setting": "[1]; Example 3, pre-incubation with RGDS 5×10^6 moles/L for 5 min, control 62% at time zero", "value": 19, "unit": "%"}]}
{"molecule": "B1", "values": [{"measurement": "change in total sperm motility", "setting": "[1]; Example 4, vitronectin 2 μg/l, 5 minutes, 37° C.", "value": "highly significant decrease"}]}
